Read-outs that look alike come from different tables or passages of the source.
Assays:
[1] = target: MAT2A recombinant protein (Homo sapiens, UniProt P31153); assay: MAT2A inhibitory activity (malachite green colorimetric enzyme assay); type: biochemical
Procedure, shortened: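 Compounds tested over 10 points, 3-fold dilutions, top final concentration 1000 nM. Enzyme reaction: MAT2A, L-methionine, ATP, room temperature, 60 min, in HEPES pH 7.5 buffer with KCl, MgCl2 and DTT; inorganic phosphate read colorimetrically (malachite green, A630). Inhibition vs log concentration fitted for IC50.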

[2] = system: SDMA in HCT116-MTAP-knockout cell line; assay: Cell symmetric dimethylarginine (SDMA) test, In-cell Western, HCT116-MTAP-knockout; type: cell-based; settings: Homo sapiens, 96 h
[3] = system: SDMA in human colon cancer cell line HCT116; assay: Cell symmetric dimethylarginine (SDMA) test, In-cell Western, HCT116 (MTAP wild-type); type: cell-based
Procedure, shortened: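 SDMA level, an indirect readout of cellular MAT2A inhibition, measured by In-cell Western as background-subtracted 800/700 nm signal against DRAQ5. Cells exposed 4 days to six 1:4-diluted doses from 6 μM; inhibition relative to DMSO, IC50 from sigmoidal fit.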

[4] = system: HCT116-MTAP-knockout (−/−) cell strain; assay: Tumor cell proliferation inhibition assay (CellTiter-Glo), HCT116-MTAP-knockout (-/-); type: cell-based; settings: Homo sapiens, 120 h, 5-day treatment
Procedure, shortened: (§1)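 Cells were seeded, left 24 h, then exposed to test compounds in a 10-point, 1:3 dilution series from 10 μM top concentration alongside a DMSO group. After 5 days at 37° C./5% CO2, growth inhibition was judged from ATP level by CellTiter-Glo luminescence.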

[5] = system: HCT116-MTAP wild-type (+/+)-cell strain; assay: Tumor cell proliferation inhibition assay (CellTiter-Glo), HCT116-MTAP wild-type (+/+); type: cell-based; settings: Homo sapiens, 120 h, 5-day treatment
Procedure, shortened: as §1

DOHH-2 cell strain = assay: Tumor cell proliferation inhibition assay (CellTiter-Glo), DOHH-2; type: cell-based; settings: Homo sapiens, 120 h, DOHH-2 cells, 5-day treatment
Description: After the HCT116-MTAP-knockout (−/−) cell strain, the HCT116-MTAP wild-type(+/+)-cell strain, the DOHH-2 cell strain, or the Hut-78 cell strain was treated with the test compound for 5 days, the ATP level was measured using a CellTiter-Glo kit of Promega to evaluate the inhibition of the test compound against the growth of the tumor cell strain.
In the present application, the HCT116-MTAP-knockout (−/−) cell strain, the HCT116-MTAP wild-type (+/+)-cell strain, the DOHH-2 cell strain, or the Hut-78 cell strain was seeded into a 96-well cell culture plate at an appropriate cell density. After 24 h, the cells were treated using the test compounds diluted 1:3 fold at the highest concentration of 10 μM for 10 gradients, and a DMSO treatment group was set up separately. The cells were cultured in a 37° C./5% CO2 incubator for 5 days.

[6] = Pharmacokinetic test in mice (IV and PO); type: in vivo; settings: mouse, plasma, BALB/c mice; for half-life: read-out: T½ (converted); for Vd: read-out: Vz
Hut-78 cell strain = assay: Tumor cell proliferation inhibition assay (CellTiter-Glo), Hut-78; type: cell-based; settings: Hut-78 cells, 5-day treatment
Procedure, shortened: as §1

[7] = Pharmacokinetic test in rats (IV and PO); type: in vivo; settings: rat, plasma, SD rats; for half-life: read-out: T½ (converted)
[8] = IC50 score class, read-out: MAT2A Inhibition (score)
[9] = IC50 score class, read-out: Cell 96 h SDMA Inhibition (HCT116-MTAP−/−) (score)
[10] = read-out: Cell 96 h SDMA Inhibition (HCT116-MTAP−/−)
[11] = Homo sapiens, HCT-116, 96 h, IC50 score class, read-out: Cell 96 h SDMA Inhibition (HCT116-MTAP+/+) (score)
[12] = Homo sapiens, HCT-116, 96 h, read-out: Cell 96 h SDMA inhibition (HCT116-MTAP+/+)
[13] = HCT116-MTAP-knockout (−/−) cells, IC50 score, read-out: Tumor cell 5-day relative growth inhibition (HCT116-MTAP−/−) (nM), score
[14] = HCT116-MTAP-knockout (−/−) cells, IC50 value, read-out: Tumor cell 5-day relative growth inhibition (HCT116-MTAP−/−)
[15] = HCT116-MTAP wild-type (+/+) cells, IC50 score, read-out: Tumor cell 5-day relative growth inhibition (HCT116-MTAP+/+) (nM), score
[16] = HCT116-MTAP wild-type (+/+) cells, IC50 value, read-out: Tumor cell 5-day relative growth inhibition (HCT116-MTAP+/+)
[17] = IC50 score, read-out: Tumor cell 5-day relative growth inhibition (DOHH-2) (nM), score
[18] = IC50 value, read-out: Tumor cell 5-day relative growth inhibition (DOHH-2)
[19] = Homo sapiens, HuT78, 120 h, IC50 score, read-out: Tumor cell 5-day relative growth inhibition (Hut-78) (nM), score
[20] = Homo sapiens, HuT78, 120 h, IC50 value, read-out: Tumor cell 5-day relative growth inhibition (Hut-78)
[21] = IC50 score, read-out: Tumor cell 5-day relative growth inhibition (Hut-78) (nM), score
[22] = IC50 value, read-out: Tumor cell 5-day relative growth inhibition (Hut-78)

MAT2A recombinant protein, sequence (P31153 whole entry): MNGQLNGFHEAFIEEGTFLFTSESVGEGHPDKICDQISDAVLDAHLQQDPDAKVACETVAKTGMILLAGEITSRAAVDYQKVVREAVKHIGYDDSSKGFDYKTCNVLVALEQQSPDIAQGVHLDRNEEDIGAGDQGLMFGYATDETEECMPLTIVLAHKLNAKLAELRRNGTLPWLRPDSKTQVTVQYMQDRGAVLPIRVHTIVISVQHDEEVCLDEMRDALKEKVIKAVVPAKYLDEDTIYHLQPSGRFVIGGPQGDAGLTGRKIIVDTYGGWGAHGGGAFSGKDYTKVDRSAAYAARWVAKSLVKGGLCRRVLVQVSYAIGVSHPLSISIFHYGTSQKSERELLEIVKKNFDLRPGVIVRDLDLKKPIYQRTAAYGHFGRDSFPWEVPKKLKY

IC50 [1, 8] | IC50 ([1]; read-out: MAT2A Inhibition) | IC50 [2, 9] | IC50 [2, 10] | IC50 [3, 11] | IC50 [3, 12] | IC50 (DOHH-2 cell strain; [17]) | IC50 (DOHH-2 cell strain; [18]) | IC50 (Hut-78 cell strain; [19]) | IC50 (Hut-78 cell strain; [20]) | Compound | other results
< 100 nM | 17.2 nM | < 200 nM | 188 nM | 1000 to 3000 nM | 2790 nM | 500 to 2000 nM | 979 nM |  |  | O=c1c2[nH]ncc2c2ccc(Cl)cc2n1-c1cccnc1 [Compound B13] | IC50 [4, 13]: < 500 nM; IC50 [4, 14]: 282 nM; IC50 [5, 15]: 500 to 2000 nM; IC50 [5, 16]: 928 nM
< 100 nM | 18.5 nM | < 200 nM | 90.4 nM | 200 to 1000 nM | 599 nM | 500 to 2000 nM | 719 nM |  |  | CCn1cc2c(n1)c(=O)n(-c1cccnc1)c1nc(C(F)(F)F)ccc21 [Compound B29] | IC50 [4, 13]: < 500 nM; IC50 [4, 14]: 154 nM; IC50 [5, 15]: < 500 nM; IC50 [5, 16]: 437 nM; AUC ([6]; IV 2 mg/kg): 1.86 µM·h; clearance ([6]; IV 2 mg/kg): 46.7 mL/min/kg; bioavailability ([6]; IV 2 mg/kg, PO 10 mg/kg): 95%; half-life ([6]; IV 2 mg/kg): 18 min; Vd ([6]; IV 2 mg/kg): 1.3 L/kg; AUC ([6]; PO 10 mg/kg): 9.32 µM·h; half-life ([6]; PO 10 mg/kg): 25.8 min
< 100 nM | 32.7 nM | < 200 nM | 7.6 nM | 200 to 1000 nM | 230 nM | < 500 nM | 400 nM | < 500 nM | 33.1 nM | CCn1cc2c(n1)c(=O)n(-c1cccnc1C)c1cc(Cl)ccc21 [Compound B30] | 
 |  | 200 to 1000 nM | 586 nM | 1000 to 3000 nM | 1530 nM | ≥ 2000 nM | 3790 nM | < 500 nM | 98.6 nM | CC(C)n1cc2c(n1)c(=O)n(-c1cccnc1)c1cc(Cl)ccc21 [Compound B39] | 
< 100 nM | 29.3 nM | < 200 nM | 63.5 nM | > 3000 nM | 5140 nM | 500 to 2000 nM | 880 nM | < 500 nM | 81.8 nM | Cn1ccc(Cn2cc3c(n2)c(=O)n(-c2cccnc2)c2cc(Cl)ccc32)n1 [Compound B48] | IC50 [4, 13]: < 500 nM; IC50 [4, 14]: 119 nM; IC50 [5, 15]: 500 to 2000 nM; IC50 [5, 16]: 1730 nM
< 100 nM | 34.1 nM |  |  |  |  | < 500 nM | 62.9 nM |  |  | Cc1ncccc1-n1c(=O)c2nn(C)cc2c2ccc(Cl)cc21 [Compound B65] | IC50 ([3]; 96 h, IC50 score class, read-out: Cell 96 h SDMA Inhibition (HCT116-MTAP+/+) (score)): < 200 nM; IC50 ([3]; 96 h, read-out: Cell 96 h SDMA inhibition (HCT116-MTAP+/+)): 191 nM; IC50 (Hut-78 cell strain; [21]): < 500 nM; IC50 (Hut-78 cell strain; [22]): 23.8 nM

Continued, compound first:

Compound | IC50 [1, 8] | IC50 ([1]; read-out: MAT2A Inhibition) | IC50 [2, 9] | IC50 [2, 10] | IC50 [3, 11] | IC50 [3, 12] | IC50 (DOHH-2 cell strain; [17]) | IC50 (DOHH-2 cell strain; [18]) | IC50 (Hut-78 cell strain; [19]) | IC50 (Hut-78 cell strain; [20]) | other results
CCn1nc2c(=O)n(-c3cccnc3)c3cc(Cl)ccc3c2c1C [Compound B17] | < 100 nM | 24 nM | < 200 nM | 51.5 nM | 200 to 1000 nM | 635 nM | < 500 nM | 396 nM |  |  | AUC ([6]; IV 2 mg/kg): 3.46 µM·h; clearance ([6]; IV 2 mg/kg): 27.7 mL/min/kg; bioavailability ([6]; IV 2 mg/kg, PO 10 mg/kg): 127%; half-life ([6]; IV 2 mg/kg): 14.4 min; Vd ([6]; IV 2 mg/kg): 0.6 L/kg; AUC ([6]; PO 10 mg/kg): 22.5 µM·h; half-life ([6]; PO 10 mg/kg): 28.2 min
O=c1c2nn(CC(F)F)cc2c2ccc(Cl)cc2n1-c1cccnc1 [Compound B40] |  |  | 200 to 1000 nM | 376 nM | > 3000 nM | 4470 nM | ≥ 2000 nM | 2400 nM | 500 to 2000 nM | 1290 nM | 
O=c1c2nn(Cc3cccnc3)cc2c2ccc(Cl)cc2n1-c1cccnc1 [Compound B47] | < 100 nM | 29.7 nM | < 200 nM | 154 nM | > 3000 nM | 47000 nM | 500 to 2000 nM | 1670 nM | < 500 nM | 200 nM | 
Cn1cc2c(n1)c(=O)n(-c1ccc3cn[nH]c3c1)c1cc(Cl)ccc21 [Compound B57] | < 100 nM | 54.3 nM | 200 to 1000 nM | 579 nM | > 3000 nM | > 3000 nM | ≥ 2000 nM | 2040 nM | ≥ 2000 nM | 2130 nM | 
Cn1cc2c(n1)c(=O)n(-c1cccnc1)c1cc(C(F)(F)F)ccc21 [Compound B69] | < 100 nM | 28 nM | < 200 nM | 109 nM | 1000 to 3000 nM | 1470 nM | 500 to 2000 nM | 1150 nM |  |  | 
Cc1ncccc1-n1c(=O)c2nn(C)cc2c2ccc(C3CC3)cc21 [Compound B74] | < 100 nM | 44.3 nM | < 200 nM | 19.3 nM | 200 to 1000 nM | 261 nM | < 500 nM | 340 nM |  |  | 
Cc1ncccc1-n1c(=O)c2nn(C)cc2c2ccc(C(F)(F)F)nc21 [Compound B76] |  |  | < 200 nM | 10 nM | 200 to 1000 nM | 216 nM | < 500 nM | 82 nM |  |  | IC50 (Hut-78 cell strain; [21]): < 500 nM; IC50 (Hut-78 cell strain; [22]): 10.6 nM
Cc1ncccc1-n1c(=O)c2nn(C)cc2c2ccc(OC(F)(F)F)cc21 [Compound B77] | < 100 nM | 43.1 nM | < 200 nM | 32.8 nM | 200 to 1000 nM | 396 nM | < 500 nM | 390 nM | < 500 nM | 87.8 nM | 
Cn1cc2c(n1)c(=O)n(-c1cccc(O)c1)c1cc(C(F)(F)F)ccc21 [Compound B150] | < 100 nM | 27.8 nM | < 200 nM | 54.3 nM | 200 to 1000 nM | 861 nM | 500 to 2000 nM | 654 nM | < 500 nM | 140 nM | 
O=c1c2n[nH]cc2c2cc(F)c(Cl)cc2n1-c1cccnc1C1CC1 [Compound B425] | < 100 nM | 6 nM | < 200 nM | 4.3 nM | > 3000 nM | > 10000 nM |  |  |  |  | IC50 ([4]; HCT116-MTAP−/− cells, IC50 class score, read-out: Tumor cell 5-day relative growth inhibition (HCT116-MTAP−/−) (nM), score): < 500 nM; IC50 ([4]; HCT116-MTAP−/− cells, read-out: Tumor cell 5-day relative growth inhibition (HCT116-MTAP−/−)): 260 nM; IC50 ([5]; HCT116-MTAP+/+ cells, IC50 class score, read-out: Tumor cell 5-day relative growth inhibition (HCT116-MTAP+/+) (nM), score): ≥ 2000 nM; IC50 ([5]; HCT116-MTAP+/+ cells, read-out: Tumor cell 5-day relative growth inhibition (HCT116-MTAP+/+)): > 10000 nM; AUC ([7]; IV 1 mg/kg): 21 µM·h; clearance ([7]; IV 1 mg/kg): 2 mL/min/kg; bioavailability ([7]; IV 1 mg/kg, PO 5 mg/kg): 116%; half-life ([7]; IV 1 mg/kg): 840 min; AUC ([7]; PO 5 mg/kg): 128 µM·h; half-life ([7]; PO 5 mg/kg): 696 min

From patent US20240391923A1, “METHIONINE ADENOSYLTRANSFERASE 2A INHIBITOR FOR TREATING MTAP DELETION-TYPE CANCER” (SUZHOU GENHOUSE BIO CO., LTD., priority 2022, published 2024)
